Test results: the supplement of paper PMC10307832

Tests used:
Assay in all cases: relative viability (nuclei count vs DMSO), 5 days (fraction); higher = more cells survive
[1] = compound: CO[C@@H]1[C@H](N(C)C(=O)c2ccccc2)C[C@H]2O[C@]1(C)n1c3ccccc3c3c4c(c5c6ccccc6n2c5c31)C(=O)NC4 [Midostaurin] + CC1(C)CCC(c2ccc(Cl)cc2)=C(CN2CCN(c3ccc(C(=O)NS(=O)(=O)c4ccc(N[C@H](CCN5CCOCC5)CSc5ccccc5)c(S(=O)(=O)C(F)(F)F)c4)cc3)CC2)C1 [Navitoclax] (partner 0.5 µM)
In short: (§1)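 Relative viability was taken as the ratio of nuclei in treated wells to nuclei in vehicle wells. Lung cancer cell lines in 1536-well plates received compounds by pin tool one day after seeding, either one drug alone or a fixed anchor-drug dose plus five library-drug doses (not always all listed) in √10 steps. Nuclei were counted on 4× images after 5 days of treatment, and values are medians of duplicate plates.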

[2] = compound: CO[C@@H]1[C@H](N(C)C(=O)c2ccccc2)C[C@H]2O[C@]1(C)n1c3ccccc3c3c4c(c5c6ccccc6n2c5c31)C(=O)NC4 [Midostaurin] + N=C(N)NC(=N)NCCc1ccccc1 [Phenformin] (partner 250 µM)
In short: as §1

[3] = compound: CO[C@@H]1[C@H](N(C)C(=O)c2ccccc2)C[C@H]2O[C@]1(C)n1c3ccccc3c3c4c(c5c6ccccc6n2c5c31)C(=O)NC4 [Midostaurin] + O=C(CCCCCCC(=O)Nc1ccccc1)NO [Vorinostat] (partner 1 µM)
In short: as §1

[4] = compound: COc1cc(-c2nn([C@H]3CC[C@H](N4CCN(C(C)=O)CC4)CC3)c3ncnc(N)c23)ccc1NC(=O)c1cc2ccccc2n1C + CCNC(=O)c1noc(-c2cc(C(C)C)c(O)cc2O)c1-c1ccc(CN2CCOCC2)cc1 [Luminespib] (partner 0.01 µM)
In short: as §1

[5] = compound: COc1cc(-c2nn([C@H]3CC[C@H](N4CCN(C(C)=O)CC4)CC3)c3ncnc(N)c23)ccc1NC(=O)c1cc2ccccc2n1C + Cc1nc(Nc2ncc(C(=O)Nc3c(C)cccc3Cl)s2)cc(N2CCN(CCO)CC2)n1 [Dasatinib] (partner 0.075 µM)
In short: as §1

Cell Line	relative viability ([1]; first compound 0.01 µM)	relative viability ([1]; first compound 0.03162 µM)	relative viability ([1]; first compound 0.1 µM)	relative viability ([1]; first compound 0.3162 µM)	relative viability ([2]; first compound 0.01 µM)	relative viability ([2]; first compound 0.03162 µM)	relative viability ([2]; first compound 0.1 µM)	relative viability ([2]; first compound 0.3162 µM)	relative viability ([3]; first compound 0.01 µM)	relative viability ([3]; first compound 0.03162 µM)	relative viability ([3]; first compound 0.1 µM)	relative viability ([3]; first compound 0.3162 µM)	relative viability ([4]; first compound 0.0128 µM)	relative viability ([4]; first compound 0.04048 µM)	relative viability ([4]; first compound 0.128 µM)	relative viability ([4]; first compound 1.28 µM)	relative viability ([5]; first compound 0.0128 µM)	relative viability ([5]; first compound 0.04048 µM)	relative viability ([5]; first compound 0.128 µM)	relative viability ([5]; first compound 1.28 µM)
201T	1.19	1.2	1.17	1.25	0.447	0.423	0.468	0.47	0.991	0.871	1.02	1.08	1.04	1.1	0.929	0.539	0.617	0.511	0.537	0.448
NCI-H2170	0.609	0.673	0.549	0.569	0.357	0.384	0.404	0.347	0.857	0.843	0.774	0.699	0.663	0.79	0.669	0.373	0.554	0.494	0.559	0.592
NCI-H460	1.08	0.994	1.05	1.07	0.492	0.507	0.561	0.534	0.697	0.578	0.65	0.115	0.0282	0.0389	0.0319	0.0347	0.526	0.386	0.475	0.507
HCC-15	0.721	0.697	0.71	0.704	0.47	0.459	0.472	0.44	0.942	0.806	0.785	0.765	0.818	0.302	0.224	0.23	0.638	0.593	0.684	0.731
NCI-H441	0.402	0.832	0.522	0.554	0.914	0.773	0.747	0.768	0.846	0.801	0.801	0.585	0.337	0.347	0.31	0.244	0.628	0.463	0.657	0.536
EPLC-272H	1.11	0.96	0.856	1.27	0.31	–	0.282	0.303	0.47	0.436	0.426	0.393	0.331	–	0.257	0.209	0.407	–	0.391	0.347
